According to patent EP3156398A1, “AGONISTS OF THE CHEMOKINE RECEPTOR CXCR3” (Friedrich-Alexander-Universität Erlangen-Nürnberg, priority 2015, dated 2017):

Experiments:
CXCR3 = target: T1, CXCR3 (Homo sapiens, UniProt P49682); assay: [35S]GTPγS incorporation assay; assay type: biochemical; details: for Emax: read-out: CXCR3 Efficacy (%) ± SEM; for CXCR3 pEC50 ± SEM: mean of three experiments in triplicate
T1 construct: expressed in transfected cells; host or cells: HEK293 / HEK293T cells, stably transfected; membrane preparations
T1 sequence (P49682 1-368): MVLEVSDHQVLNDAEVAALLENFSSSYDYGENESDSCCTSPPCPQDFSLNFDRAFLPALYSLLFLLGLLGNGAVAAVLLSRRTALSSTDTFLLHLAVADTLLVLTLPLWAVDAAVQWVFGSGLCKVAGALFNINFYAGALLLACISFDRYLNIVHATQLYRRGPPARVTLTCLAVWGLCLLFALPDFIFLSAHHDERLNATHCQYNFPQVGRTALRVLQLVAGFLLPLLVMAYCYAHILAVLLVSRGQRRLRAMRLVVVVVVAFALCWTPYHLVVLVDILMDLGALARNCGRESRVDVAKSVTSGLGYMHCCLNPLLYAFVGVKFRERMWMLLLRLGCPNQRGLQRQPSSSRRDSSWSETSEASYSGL
Protocol: Membrane preparation for allosteric radioligand RAMX3 displacement and [^35S]GTPγS incorporation assays: The human embryonic kidney (HEK) cells stably expressing the human CXCR3 receptor were cultured in 150-mm cell culture plates in DMEM/F-12 supplemented with 10% fetal bovine serum (FBS), 2 mM L-glutamine, 1% penicillin-streptomycin, 300 µgmL^-1 Zeocin and incubated at 37 °C in a humid atmosphere with 5% CO2. At 100% confluency cells were washed with PBS twice, treated with Tris EDTA buffer (10 mM Tris, 0.5 mM EDTA, 5 mM KCl, 140 mM NaCl, pH 7.4), and harvested using a cell scraper. Cells were pelleted at 1100×g for 8 min at 4 °C, resuspended in Tris-EDTA-MgCl2 buffer (50mM Tris, 5 mM EDTA, 1.5 mM CaCl2, 5 mM MgCl2, 5 mM KCl, 120 mM NaCl, pH 7.4) and followed by lysis with an Ultra-Turrax. After centrifugation at 50,000•g, at 4°C for 18 min the membranes were resuspended in the binding buffer (50 mM Tris, 1 mM EDTA, 5 mM MgCl2 and subsequently homogenized with a glass-Teflon homogenizer (20 strokes). The homogenized membranes were shock-frozen in liquid nitrogen and stored at -80°C. The protein concentration was determined with the Lowry method with bovine serum albumin used as a standard.^35
[^35S]GTPγS incorporation assay: The [^35S]GTPγS incorporation assay was performed on membrane preparations of stably transfected HEK293 cells that expressed the CXCR3 receptor. The assay was carried out in 96-well plates at the final volume of 200 µL. The incubation buffer contained 20 mM HEPES, 10 mM MgCl2•6H20,100 mM NaCl and 100 mg/L saponin (pH 7.4). Membranes (30 µgmL^-1 of membrane protein), various concentrations of test compound and CXCL11, and 1 µM GDP were preincubated in the absence of [^35S]GTPγS for 30 min at 37 °C. After the addition of 0.10 nM [^35S]GTPγS membranes were incubated for additional 30 min at 37 °C. Incubation was terminated by filtration through Whatman GF/B filters soaked with ice cold PBS. The filter-bound radioactivity was measured as described above. Three to four experiments per compound were performed with each concentration in triplicate.
The activation of G proteins was explored in terms of CXCR3 mediated [^35S]GTPγS incorporation. In the [^35S]GTPγS incorporation assay the membrane preparations of HEK293T cells stably expressing CXCR3 were used. The activation of G proteins was monitored as the incorporation of [^35S]GTPγS and thus increase in the incorporated radioactivity. The potency and efficacy of the novel compounds was first compared to the reference compound 46/VUF10661. […] Table 1. The ability of the 46/VUF10661 based positive allosteric modulators to activate CXCR3 as measured in the [35S]GTPγS incorporation assay.[a]

CXCR3-PK1 = target: T2, CXCR3-PK1 (Homo sapiens, UniProt P49682); assay: β-arrestin 2 recruitment assay (PathHunter, DiscoveRx), CXCR3-PK1 construct; assay type: cell-based; details: CXCR3-PK1; for Emax: % of CXCL11 mediated effect, read-out: CXCR3-PK1 efficacy (%) (converted); for CXCR3-PK1 pEC50 ± SEM: HEK293-T cells, PathHunter, two to three experiments in triplicate
T2 construct: expressed in transfected cells; host or cells: HEK293 cells stably expressing beta-gal enzyme acceptor (PathHunter, DiscoveRx), transiently transfected
T2 sequence (P49682 1-368): T1 sequence (P49682 1-368)
Protocol: (§1) β-arrestin 2 recruitment assay: The measurement of β-arrestin recruitment was performed utilizing the PathHunter assay purchased from DiscoveRx (DiscoveRx, Birmingham, U.K.) according to the manufacturer's protocol. HEK293 cells stably expressing β-gal enzyme acceptor were transiently transfected with the ProLink (PK1) tagged wildtype CXCR3 receptor using the TransIT-293 transfection reagent from Mirus (purchased from MoBiTec, Goettingen, Germany). The assay was carried out in 384-well plates containing 2000 cells in 20 µL. After incubation at 37°C (5% CO2, 95% relative humidity) overnight, various concentrations of test compounds or CXCL11 (prepared in PBS, pH 7.4, containing 0.20% BSA) were added and the incubation continued for 4 h. Detection mix was then added and incubated for further 60 min at room temperature. Chemiluminescence was determined with a microplate reader Clariostar (BMG labtech, Ortenberg, Germany).
(§2) The ability of the novel ligands according to the present invention to induce CXCR3-mediated β-arrestin 2 recruitment was investigated in the assay system PathHunter (DiscoveRx), which detects the recruitment of β-amestin 2 to the activated receptor using β-galactosidase (β-gal) enzyme fragment complementation. The inventors used two different ProLink tags, ProLink1 (PK1) and ProLink2 (PK2), of which PK2 has higher affinity for the enzyme acceptor to detect weak protein-protein interactions. The CXCR3-PK2 construct is readily able to detect the differences in the propensity of CXCL11 and CXCL10 to induce β-arrestin 2 recruitment at CXCR3. […] Table 3. Ability of the 46/VUF10661 based positive allosteric modulators to activate the CXCR3 as measured in the β-arrestin 2 recruitment assay (PathHunter, DiscoveRx).[a]

CXCR3-PK2 = target: T3, CXCR3-PK2 (Homo sapiens, UniProt P49682); assay: β-arrestin 2 recruitment assay (PathHunter, DiscoveRx), CXCR3-PK2 construct; assay type: cell-based; details: for Emax: % of CXCL11 mediated effect, read-out: CXCR3-PK2 efficacy (%) (converted); for Emax / CXCR3-PK2 pEC50 ± SEM: CXCR3-PK2; for CXCR3-PK2 pEC50 ± SEM: HEK293-T cells, PathHunter
T3 construct: expressed in transfected cells
T3 sequence (P49682 1-368): T1 sequence (P49682 1-368)
Protocol: as §1, §2
To investigate the efficacy of identified partial agonists in the assay format, the inventors used the CXCR3-PK2 construct, which is characterized by higher sensitivity to detect β-arrestin 2 recruitment. The compounds which appeared as weak partial agonists under CXCR3-PK1 conditions appeared as strong partial agonists under CXCR3-PK2 conditions with the efficacy increased up to 80% (Table 4). FAUC1036 reached the efficacy of 66%. […] Table 4. Ability of the compound 5 based positive allosteric modulators to activate the CXCR3 as measured in the β-arrestin 2 recruitment assay (PathHunter, DiscoveRx).[a]

activated T-cells = details: cited from earlier work
[1] = % of CXCL11 mediated effect, membrane preparations of HEK293T stably expressing CXCR3
[2] = membrane preparations of HEK293T stably expressing CXCR3

In the case of `N[C@@H](CCCCNC(=O)[C@@H]1Cc2ccccc2CN1)C(=O)NCC(c1ccccc1)c1ccccc1.O=C(O)C(F)(F)F.O=C(O)C(F)(F)F` [Compound 28, (S)-3-(((S)-5-ammonio-6-((2,2-diphenylethyl)amino)-6-oxohexyl)carbamoyl)-1,2,3,4-tetrahydroisoquinolin-2-ium 2,2,2-trifluoroacetate], the Emax (CXCR3; [1]) is reported as 40 ± 7%, the “CXCR3 pEC50 ± SEM” value (CXCR3; [2]) is reported as 5.65±0.23 and the Emax (CXCR3-PK1) is reported as 14%. The “CXCR3-PK1 pEC50 ± SEM” value (CXCR3-PK1) was 6.80±0.45, the Emax (CXCR3-PK2) was 85% and the “CXCR3-PK2 pEC50 ± SEM” value (CXCR3-PK2) was 6.55±0.26.
For `CC(C)(C)OC(=O)N[C@H](CCCCNC(=O)[C@@H]1Cc2ccccc2CN1C(=O)CCC(=O)c1ccccc1)C(=O)NCC(c1ccccc1)c1ccccc1` [Compound 34, Tert-butyl ((R)-1-((2,2-diphenylethyl)amino)-1-oxo-6-((S)-2-(4-oxo-4-phenylbutanoyl)-1,2,3,4-tetrahydroisoquinoline-3-carboxamido)hexan-2-yl)carbamate], the “CXCR3 Efficacy (%) ± SEM” value (CXCR3; [1]) was “No effect”, the “CXCR3 mediated G protein activation (result in words)” value (CXCR3; [35S]GTPγS incorporation) was “failed to induce CXCR3 mediated G protein activation” and the “CXCR3 pEC50 ± SEM” value (CXCR3; [2]) was “No effect”. The Emax (CXCR3-PK1) was 16%, the “CXCR3-PK1 pEC50 ± SEM” value (CXCR3-PK1) was 6.95±0.50 and the “β-arrestin 2 recruitment agonism using PK2 tag (result in words)” value (CXCR3-PK2) was “reached the levels of full agonism”. For the same compound, the Emax (CXCR3-PK2) was 88% and the “CXCR3-PK2 pEC50 ± SEM” value (CXCR3-PK2) was 6.86±0.19.
In the case of `N[C@H](CCCCNC(=O)[C@@H]1Cc2ccccc2CN1C(=O)CCC(=O)c1ccccc1)C(=O)NCC(c1ccccc1)c1ccccc1.O=C(O)C(F)(F)F` [Compound 35, (R)-1-((2,2-diphenylethyl)amino)-1-oxo-6-((S)-2-(4-oxo-4-phenylbutanoyl)-1,2,3,4-tetrahydroisoquinoline-3-carboxamido)hexan-2-aminium 2,2,2-trifluoroacetate], the Emax (CXCR3; [1]) is reported as 25 ± 4%, the “CXCR3 pEC50 ± SEM” value (CXCR3; [2]) is reported as 8.01±0.31 and the Emax (CXCR3-PK1) is reported as 28%. The “CXCR3-PK1 pEC50 ± SEM” value (CXCR3-PK1) was 7.16±0.33, the Emax (CXCR3-PK2) was 79% and the “CXCR3-PK2 pEC50 ± SEM” value (CXCR3-PK2) was 6.52±0.43.
In the case of `CC(C)(C)OC(=O)NCCCC[C@@H](NC(=O)[C@@H]1Cc2ccccc2CN1C(=O)CCC(=O)c1ccccc1)C(=O)NCC(c1ccccc1)c1ccccc1` [Compound 45, Tert-butyl ((R)-6-((2,2-diphenylethyl)amino)-6-oxo-5-((S)-2-(4-oxo-4-phenylbutanoyl)-1,2,3,4-tetrahydroisoquinoline-3-carboxamido)hexyl)carbamate], the Emax (CXCR3; [1]) is reported as 33 ± 7%, the “CXCR3 pEC50 ± SEM” value (CXCR3; [2]) is reported as 5.97±0.34 and the Emax (CXCR3-PK1) is reported as roughly 36%. The “CXCR3-PK1 pEC50 ± SEM” value (CXCR3-PK1) was 6.63±0.17, the Emax (CXCR3-PK2) was 30% and the “CXCR3-PK2 pEC50 ± SEM” value (CXCR3-PK2) was 7.23±0.69.
For `NCCCC[C@@H](NC(=O)[C@@H]1Cc2ccccc2CN1C(=O)CCC(=O)c1ccccc1)C(=O)NCC(c1ccccc1)c1ccccc1.O=C(O)C(F)(F)F` [Compound 47, (R)-6-((2,2-diphenylethyl)amino)-6-oxo-5-((S)-2-(4-oxo-4-phenylbutanoyl)-1,2,3,4-tetrahydroisoquinoline-3-carboxamido)hexan-1-aminium 2,2,2-trifluoroacetate], the Emax (CXCR3; [1]) was 85 ± 5%, the “CXCR3 pEC50 ± SEM” value (CXCR3; [2]) was 5.94±0.09 and the Emax (CXCR3-PK1) was 108%. The “CXCR3-PK1 pEC50 ± SEM” value (CXCR3-PK1) was 5.96±0.08, the Emax (CXCR3-PK2) was 198% and the “CXCR3-PK2 pEC50 ± SEM” value (CXCR3-PK2) was 6.12±0.11.
In the case of `NC(N)=NCCC[C@H](NC(=O)[C@@H]1Cc2ccccc2CN1C(=O)CCC(=O)c1ccccc1)C(=O)NCC1CCCCC1` [PS372424], the “influence on CXCL11 induced migration in activated T-cells” value (activated T-cells) is listed as “found to antagonize CXCL11 induced migration”.
